Test results reported in the supplement of paper PMC10307832.

Assays:
Assay in all cases: relative viability (nuclei count vs DMSO), 5 days (fraction); higher = more cells survive
AZD1208 + Pictilisib = compound: N[C@@H]1CCCN(c2c(/C=C3\SC(=O)NC3=O)cccc2-c2ccccc2)C1 [AZD1208] + CS(=O)(=O)N1CCN(Cc2cc3nc(-c4cccc5[nH]ncc45)nc(N4CCOCC4)c3s2)CC1 [Pictilisib] (partner 1 µM)
Procedure, shortened: (§1)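 After 5 days of treatment, lung cancer cells in 1536-well plates were fixed and stained in a single step (final 0.05% Triton X-100, 1% formaldehyde, 1 ug/ml Hoechst) and their nuclei counted on 4× images. Treatment had been applied by pin tool the day after seeding as one drug alone or as a fixed anchor-drug dose with five library-drug doses (not always all listed) in √10 steps. Relative viability is the nuclei count of treated wells divided by that of vehicle wells, and values are medians of duplicate plates.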

XMD14-99 + OSI-027 = compound: CN1CCN(CC1)C2=CC(=C(C=C2)NC3=NC(=C(S3)C(=O)C4=C(C=CC=C4Cl)Cl)N)OC [XMD14-99] + COc1cccc2cc(-c3nc([C@H]4CC[C@H](C(=O)O)CC4)n4ncnc(N)c34)[nH]c12 [OSI-027] (partner 0.5 µM)
Procedure, shortened: as §1

AZD1208 + Navitoclax = compound: N[C@@H]1CCCN(c2c(/C=C3\SC(=O)NC3=O)cccc2-c2ccccc2)C1 [AZD1208] + CC1(C)CCC(c2ccc(Cl)cc2)=C(CN2CCN(c3ccc(C(=O)NS(=O)(=O)c4ccc(N[C@H](CCN5CCOCC5)CSc5ccccc5)c(S(=O)(=O)C(F)(F)F)c4)cc3)CC2)C1 [Navitoclax] (partner 0.5 µM)
Procedure, shortened: as §1

AZD1208 + OSI-027 = compound: N[C@@H]1CCCN(c2c(/C=C3\SC(=O)NC3=O)cccc2-c2ccccc2)C1 [AZD1208] + COc1cccc2cc(-c3nc([C@H]4CC[C@H](C(=O)O)CC4)n4ncnc(N)c34)[nH]c12 [OSI-027] (partner 0.5 µM)
Procedure, shortened: as §1

UMC-11 gave a relative viability (AZD1208 + Pictilisib; first compound 0.08 µM) of 0.507, a relative viability (AZD1208 + Pictilisib; first compound 0.253 µM) of 0.612 and a relative viability (AZD1208 + Pictilisib; first compound 0.8 µM) of 0.51. For the same cell line, the relative viability (AZD1208 + Pictilisib; first compound 2.53 µM) was 0.389, the relative viability (AZD1208 + Pictilisib; first compound 8 µM) was 0.344 and the relative viability (XMD14-99 + OSI-027; first compound 0.08 µM) was 0.495. The relative viability (XMD14-99 + OSI-027; first compound 0.8 µM) was 0.46, the relative viability (XMD14-99 + OSI-027; first compound 2.53 µM) was 0.421 and the relative viability (XMD14-99 + OSI-027; first compound 8 µM) was 0.359. The relative viability (AZD1208 + Navitoclax; first compound 0.08 µM) was 0.272, the relative viability (AZD1208 + Navitoclax; first compound 0.253 µM) was 0.301 and the relative viability (AZD1208 + Navitoclax; first compound 0.8 µM) was 0.251. It also gave a relative viability (AZD1208 + Navitoclax; first compound 2.53 µM) of 0.236, a relative viability (AZD1208 + Navitoclax; first compound 8 µM) of 0.195 and a relative viability (AZD1208 + OSI-027; first compound 0.08 µM) of 0.333. It also gave a relative viability (AZD1208 + OSI-027; first compound 0.253 µM) of 0.321, a relative viability (AZD1208 + OSI-027; first compound 0.8 µM) of 0.321 and a relative viability (AZD1208 + OSI-027; first compound 2.53 µM) of 0.329. It also gave a relative viability (AZD1208 + OSI-027; first compound 8 µM) of 0.294.
